Experimental data as given in patent EP1770089A1, “Pyranodibenzofuran derivatives with antifungal and antibacterial activity” (priority 2005, dated 2007).
Converted amounts (≈) assume the structure as drawn. Where two headings read alike, the source gives them in different places.

Legend:
Assay type in all cases: cell-based
L1210 cells = assay: Cytotoxicity, MTA (Microculture Tetrazolium Assay) test; conditions: cytotoxicity on L1210 cells
Description: The cytotoxicity of compounds 5, 9, and 10-21 was determined in L1210 cells using the MTA (Microculture Tetrazolium Assay) test.

Candida albicans = assay: In vitro activity (MIC99) against Candida albicans; conditions: > 99 % inhibition of growth; for MIC99: Candida albicans, read-out: MIC99 C. albicans
Description: The antifungal activity of compounds 5, 9, and 11-22 against Candida albicans was analyzed by the measure of the MIC99 concentration (see Table 1). Table 1. In Vitro Activity against Candida albicans of pyranodibenzofuran derivatives

[1] = system: Mycobacterium tuberculosis H37Rv; assay: Mycobacterial growth inhibition in liquid culture, CFU plating (MIC99); conditions: for MIC99: 504 h
[2] = system: Mycobacterium smegmatis mc^2155; assay: Mycobacterial growth inhibition in liquid culture (MIC99); conditions: two-day's growth at 37°C, 99% decrease vs DMSO control; for MIC99: Mycolicibacterium smegmatis, MC2155|MC^2155, 48 h
VERO cells = assay: Cytotoxicity, MTT test; conditions: for IC50: cytotoxicity on VERO cells, MTT, 24 hours
Description: (§1) The cytotoxicity of compounds 9 and 16 was further assessed in various mammalian cell lines using the MTT test. RAW and A549 cell lines were maintained in RPMI 1640 medium without L-GLU supplemented with 10% Fetal calf serum (FCS), penicillin-streptomycin solution 1 % at 37 °C in air with 5 % CO2. VERO cell lines were maintained in D-MEM medium without L-GLU supplemented with 10% Fetal calf Serum (FCS), penicillin-streptomycin solution 1 % at 37 °C in air with 5 % CO2. Proliferating cells were seeded for 96-well microtitration plates at a density of 5. 10^5 cells/mL which were further incubated for 24 h at 37°C under 5 % CO2 in air before each assay. Various concentrations of solutions of 9 and 16 (10 µl/well) in 1.25 % dimethylsulfoxide (DMSO)) were added and then incubated for 24 hours under the above conditions. At the end of incubation, 20 µl of dimethylthiazolyl diphenyl tetrazolium bromide solution (MTT) (7.5 mg/ml) was then added into each well and further incubated for 4 h at 37°C to allow the formation of formazan. The crystals of formazan were then dissolved with 100 µl of an acidic solution (Sodium dodecyl sulfate (SDS) 10 %, HCl 10 mM). The optical density of each well was measured at 595 nm using a Multiwell plate reader. The values given are the average means of six replicates. The 50 % inhibition concentration was determined by curve fitting.

Macrophages = assay: Cytotoxicity, MTT test; conditions: cytotoxicity on macrophages
Description: as §1

M. tuberculosis H37Ra = assay: Growth inhibition in liquid culture, CFU plating (MIC99); conditions: Mycobacterium tuberculosis
Escherichia coli = assay: Growth inhibition in liquid medium, CFU plating (MIC99); conditions: Gram-negative
Description: (§2) To further assess its specificity, effect of compounds 9 and 16 was also assessed in vitro growth in liquid medium on a whole range of bacteria (Corynebacterium jeikeium, Escherichia coli, Enterococcus faecalis, Klebsiella oxytoca, Nocardia asteroides, Staphylococcus aureus, Pseudomonas aeruginosa and Streptomyces). Compounds were solubilized in dimethylsulfoxide (DMSO) and 100 µl of the appropriate dilution were added to a 5 ml culture with predetermined bacterium inoculum. Quantification of the bacteria was carried out by plating on appropriate agar serial 5-fold dilutions in medium, and colony forming units (CFUs) were ascertained after 24 to 48 hours according to the strains. Table 5. Antibacterial activity of compounds 9 and 16 on other bacteria

Pseudomonas aeruginosa = assay: as above; conditions: Gram-negative
Description: as §2

Nocardia asteroides = assay: as above; conditions: Actinomycetes
Description: as §2

Enterococcus faecalis = assay: as above; conditions: Gram-positive
Description: as §2

Corynebacterium jeikeium = assay: as above; conditions: Actinomycetes
Description: as §2

[3] = system: M. tuberculosis Beijing (GC1237); assay: Growth inhibition in liquid culture, CFU plating (MIC99); conditions: Mycobacterium tuberculosis
M. bovis BCG (Pasteur) = assay: microbe, parasite or virus in culture; conditions: Mycobacterium tuberculosis variant bovis BCG
M. microti (MYC-942272) = assay: Growth inhibition in liquid culture, CFU plating (MIC99)
[4] = Mycobacterium tuberculosis, H37RV, H37Rv, three weeks growth in 7H9, CFU on 7H11, NI = no inhibition at 1 mg/mL, read-out: MIC99 on M. tuberculosis
[5] = read-out: MIC99 on M. smegmatis, mc2155
[6] = mc2155, read-out: MIC99 on M. smegmatis
[7] = H37Rv, three weeks growth in 7H9, CFU on 7H11, NI = no inhibition at 1 mg/mL
[8] = Mycobacterium tuberculosis, H37RV, M. tuberculosis H37Rv, three week growth in 7H9/OADC, read-out: MIC99

C=C1Oc2ccc3oc4ccccc4c3c2C1(C)C [Compound 10, 1,2-dihydro-1,1-dimethyl-2-methylenebenzofuro[5,4-b]benzofuran]
IC50 (L1210 cells; Mus musculus, read-out: IC50): 3.71 µg/mL (≈ 14.8 µM) | MIC99 (Candida albicans): > 300 µg/mL

CC1(C)Oc2cc3c(cc2[C@H](O)[C@@H]1O)oc1ccccc13 (racemic) [Compound 11, (±)cis-3,4-dihydro-3,4-dihydroxy-2,2-dimethyl-2H-benzofuro[2,3-g]-[1]-benzopyran]
MIC99 [1, 4]: > 1000 µg/mL | IC50 (L1210 cells; Mus musculus, read-out: IC50): 13 µg/mL (≈ 45.7 µM) | MIC99 (Candida albicans): 27 µg/mL (≈ 95 µM) | MIC99 [2, 5]: 30 to 60 µg/mL (≈ 106 to 211 µM) | MIC99 [2, 6]: 60 µg/mL (≈ 211 µM)

CC1(C)Oc2ccc3oc4ccccc4c3c2[C@@H](O)[C@@H]1O (racemic) [Compound 15, (±)trans-1,2,-dihydro-1,2-dihydroxy-3,3-dimethyl-3H-benzofuro[3,2-f][1]benzopyran]
MIC99 on M. tuberculosis [1, 7]: NI (No inhibition observed at the highest concentration tested (1 mg/mL)) | IC50 (L1210 cells): 12.3405 µg/mL (≈ 43.4 µM) | MIC99 C. albicans (Candida albicans): > 300 µg/mL | MIC99 on M. smegmatis ([2]; mc2155): 30 µg/mL (≈ 106 µM)

CC1(C)CCc2c(ccc3oc4ccccc4c23)O1 [Compound 16, 1,2-dihydro-3,3-dimethyl-3H-benzofuro[3,2-f][1]benzopyran]
IC50 (VERO cells; Chlorocebus sabaeus, Vero, 24 h, read-out: IC50): > 50 µg/mL | IC50 (VERO cells): 100 µg/mL (≈ 396 µM) | Selectivity Index (VERO cells; summary statement, cell type not specified): above 10 | IC50 (Macrophages; Macrophage, 24 h, read-out: IC50): > 50 µg/mL | IC50 (Macrophages; 24 hours): > 100 µg/mL | MIC99 [1, 4]: 5 µg/mL (≈ 19.8 µM) | MIC99 ([1]; Mycobacterium tuberculosis, H37RV, M. tuberculosis H37Rv, three week growth in 7H9/OADC): < 5 µg/mL | MIC ([1]; Mycobacterium tuberculosis, H37RV, summary statement, read-out: MIC measured on M. tuberculosis): < 6.25 µg/mL | MIC99 (M. tuberculosis H37Ra): 10 µg/mL (≈ 39.6 µM) | MIC99 (Escherichia coli): > 500 µg/mL | MIC99 (Pseudomonas aeruginosa): > 500 µg/mL | MIC99 (Nocardia asteroides): 15 µg/mL (≈ 59.4 µM) | MIC99 (Enterococcus faecalis): > 500 µg/mL | MIC99 (Corynebacterium jeikeium): > 150 µg/mL | MIC99 [3]: < 5 µg/mL | MIC99 (M. bovis BCG (Pasteur)): 10 µg/mL (≈ 39.6 µM) | MIC99 [2, 5]: 5 µg/mL (≈ 19.8 µM) | MIC99 [2, 6]: 1 µg/mL (≈ 3.96 µM)

CC(=O)O[C@@H]1c2c(ccc3oc4ccccc4c23)OC(C)(C)[C@@H]1OC(C)=O (racemic) [Compound 18, (±)cis-1,2-diacetoxy-1,2-dihydro-3,3-dimethyl-3H-benzofuro[3,2-f][1]benzopyran]
IC50 (L1210 cells; Mus musculus, read-out: IC50): 9.35 µg/mL (≈ 25.4 µM) | MIC99 (Candida albicans): > 300 µg/mL

CC(=O)OC1C(=O)c2c(ccc3oc4ccccc4c23)OC1(C)C (racemic) [Compound 20, (±)2-acetoxy-2,3-dihydro-2-hydro-3,3-dimethyl-1H-benzofuro[3,2-f][1]benzopyran-1-one]
IC50 (L1210 cells): 28.5 µg/mL (≈ 87.9 µM) | MIC99 C. albicans (Candida albicans): > 280 µg/mL

CC(=O)CC1(O)C(=O)c2c(ccc3oc4ccccc4c23)OC1(C)C (racemic) [Compound 14, (±)2,3-dihydro-2-hydroxy-3,3-dimethyl-2-(2-oxopropyl)-1Hbenzofuro[3,2f][1]benzopyran-1-one]
IC50 (L1210 cells): 18.981 µg/mL (≈ 56.1 µM) | MIC99 C. albicans (Candida albicans): 150 µg/mL (≈ 443 µM)

CC1(C)Oc2ccc3oc4ccccc4c3c2C(=O)C1O (racemic) [Compound 13, (±)2,3-dihydro-2-hydroxy-3,3-dimethyl-1H-benzofuro[3,2-f][1]benzopyran-1-one]
IC50 (L1210 cells; Mus musculus, read-out: IC50): 5.04 µg/mL (≈ 17.9 µM) | MIC99 (Candida albicans): > 330 µg/mL

NNC(=O)c1ccncc1 [INH, isoniazid, reference compound]
MIC99 [1, 4]: 0.1 µg/mL (≈ 0.729 µM) | MIC99 [1, 8]: 0.1 µg/mL (≈ 0.729 µM) | IC50 (L1210 cells; Mus musculus, read-out: IC50): 14 µg/mL (≈ 102 µM) | MIC99 (M. tuberculosis H37Ra): 1 µg/mL (≈ 7.29 µM) | MIC99 (M. microti (MYC-942272)): 0.1 µg/mL (≈ 0.729 µM) | MIC99 ([3]; read-out: MIC99): 0.1 µg/mL (≈ 0.729 µM) | MIC99 (M. bovis BCG (Pasteur)): 1 µg/mL (≈ 7.29 µM) | MIC99 [2, 6]: 13 µg/mL (≈ 94.8 µM)

CC1(C)Oc2ccc3oc4ccccc4c3c2[C@@H](O)[C@H]1O (racemic) [Compound 12, (±)cis-1,2-dihydro-1,2-dihydroxy-3,3-dimethyl-3H-benzofuro[3,2-f][1]benzopyran]
MIC99 [1, 4]: 60 µg/mL (≈ 211 µM) | IC50 (L1210 cells; Mus musculus, read-out: IC50): 1.3 µg/mL (≈ 4.57 µM) | MIC99 (Candida albicans): > 160 µg/mL | MIC99 [2, 5]: 30 to 60 µg/mL (≈ 106 to 211 µM) | MIC99 [2, 6]: 30 µg/mL (≈ 106 µM)

CC(=O)O[C@@H]1c2c(ccc3oc4ccccc4c23)OC(C)(C)[C@H]1OC(C)=O (racemic) [Compound 19, (±)trans-1,2,-diacetoxy-1,2-dihydro-3,3-dimethyl-3H-benzofuro[3,2-f][1]benzopyran]
MIC99 on M. tuberculosis [1, 7]: NI (No inhibition observed at the highest concentration tested (1 mg/mL)) | IC50 (L1210 cells): 5.5005 µg/mL (≈ 14.9 µM) | MIC99 C. albicans (Candida albicans): > 300 µg/mL | MIC99 on M. smegmatis ([2]; mc2155): 180 µg/mL (≈ 489 µM)

C#CC(C)(C)Oc1ccc2oc3ccccc3c2c1 [Compound 5, 2-(1,1-dimethyl-propargyloxy)-dibenzofuran]
MIC99 [1, 4]: > 1000 µg/mL | MIC99 [1, 8]: > 500 µg/mL | MIC99 (M. tuberculosis H37Ra): > 500 µg/mL | MIC99 (M. microti (MYC-942272)): > 500 µg/mL | MIC99 ([3]; read-out: MIC99): > 500 µg/mL | MIC99 (M. bovis BCG (Pasteur)): > 500 µg/mL | MIC99 [2, 5]: 12 µg/mL (≈ 47.9 µM)

CC(=O)O[C@H]1c2cc3oc4ccccc4c3cc2OC(C)(C)[C@H]1OC(C)=O (racemic) [Compound 17, (±)cis-3,4-diacetoxy-3,4-dihydro-2,2-dimethyl-2H-benzofuro[2,3-g]-[1]-benzopyran]
IC50 (L1210 cells; Mus musculus, read-out: IC50): 8.52 µg/mL (≈ 23.1 µM) | MIC99 (Candida albicans): > 400 µg/mL

Clc1ccc(COC(Cn2ccnc2)c2ccc(Cl)cc2Cl)c(Cl)c1 (stereo not drawn) [Miconazole, reference compound]
MIC99 (Candida albicans): 0.25 to 60 µg/mL (≈ 0.601 to 144 µM)

(±)cis-4H-3a,4,12b-trihydro-2,2-dimethyl-1,3-dioxolo[4,5-h]benzofuro[3,2-g]benzopyran [Compound 21]
IC50 (L1210 cells): 12.8535 µg/mL | MIC99 C. albicans (Candida albicans): > 400 µg/mL
